According to patent US20090233917A1, “Stroke recovery” (priority 2006, published 2009):
Entries after “also recorded” stand apart in the source; their conditions may differ.

What was measured:
[1] = tested on: rat cortical neurons (mixed cortical cultures); experiment: Oxygen/glucose deprivation (OGD) of rat cortical neurons, cell death by LDH release; type: cell-based, Wistar rat; conditions: all concentrations (0.1-50 μM) except 0.2 μM; added one hour after onset of OGD
Description: Mixed cortical cultures were prepared from E18 Wistar rat embryos (National Animal Center, Kuopio, Finland). The cortices were dissected and the tissue cut into small pieces. The cells were separated by fifteen minute incubation with DNase and papain. The cells were collected by centrifugation (1500 rpm, 5 min). The tissue was triturated with a pipette and the cells were placed on poly-L-lysine coated 48-well plates, 300,000 cells/cm2, in MEM (2 g/L glucose) supplemented with 2 mM glutamine, 0.1 μg/mL gentamicin, 10% heat-inactivated fetal bovine serum (FSB-HI) and 10% heat-inactivated horse serum (HS-HI). After 3-4 hours, the medium was changed to MEM (2 g/L glucose) and supplemented with 2 mM glutamine, 0.1 μg/mL gentamicin, 5% HS-HI. After three days in vitro, cells were transferred into medium containing MEM (2 g/L glucose) supplemented with glutamine, gentamicin and 5% each of FSB-HI and HS-HI sera. On day 6 in vitro, unwanted cell division was inhibited by adding cytosine arabinoside (10 μM final concentration) for 24 hours. […]
After 24 hours, possible cell debris was removed by centrifugation (13,000 rpm, 3 min.). […] The absorbance at 340 nm was measured immediately using a 3 min. kinetic measurement protocol in Multiskan ELISA reader (Labsystems, Finland). The change in absorbance/min was determined, which is directly proportional to the released LDH (=cell death).

[2] = tested on: permanent middle cerebral artery occlusion (MCAO) in rats; experiment: Functional recovery following permanent MCAO in rats (Example 1); type: in vivo, Sprague Dawley Rats
Excerpt: The purpose of this study was to evaluate the efficacy of arimoclomol and iroxanadine in enhancing neurological recovery in a model of permanent middle cerebral artery occlusion (MCAO) in rats. The permanent MCAO is a well accepted and considered to be a standard animal model for studying clinical aspects of stroke. (Stroke. 1999; 30:2752-2758.)
Forty male Sprague Dawley Rats, each weighing 300-400 g, which had been housed and handled for behavioral assessment for seven (7) days prior to surgery for acclimation purposes, were operated under anesthesia to create focal cerebral infarcts by permanent occlusion of the proximal right middle cerebral artery (MCA) according to modified Tamura model. Briefly, the rats were anesthetized with 2-3% halothane in the mixture of N2O:O2 (2:1), and were maintained with 1˜1.5% halothane in the mixture of N2O:O2 (2:1). The temporalis muscle was bisected and reflected through an incision made midway between the eye and the eardrum canal. The proximal MCA was exposed through a subtemporal craniectomy without removing the zygomatic arch and without transecting the facial nerve. […] Body temperature was maintained at 37.5° C.±0.5° C. throughout the entire procedure. Cefazolin (40 mg/kg; Baxter, Lot 06014.1, Exp. January 2009) was given i.p. one day before MCAO and just after MCAO to prevent infections.
The rats were randomly divided into 4 groups of 10 animals each. One group was given arimoclomol, p.o., starting at one hour after the occlusion at 200 mg/kg/d once daily for 3 days, then 50 mg/kg/d once daily for a total of 29 days. The second group was given iroxanadine using the same dosing regimen as for arimoclomol. The third group is a positive control group and is given intracistemally 1 μg (at 20 μg/ml, also containing 100 μg/ml of bovine serum albumin) beta-fibroblast growth factor (bFGF) one hour and one day (i.e. two administrations) after the occlusion. The fourth group is a negative control with administration of the vehicle only.
Animals were evaluated preoperation (day −1), then every 7 days after the operation (7, 14, 21, and 28 days) by forelimb and hindlimb placing tests and body swing test, which are widely accepted as standard tests indicative of functional recovery after a stroke model.
For the forelimb placing test, the examiner held the rat close to a tabletop and scored the rat's ability to place the forelimb on the tabletop in response to whisker, visual, tactile, or proprioceptive stimulation. Similarly, for the hindlimb placing test, the examiner assessed the rat's ability to place the hindlimb on the tabletop in response to tactile and proprioceptive stimulation. Separate sub-scores were obtained for each mode of sensory input (halfpoint designations possible), and added to give total scores (for the forelimb placing test: 0=normal, 12=maximally impaired; for the hindlimb placing test: 0=normal; 6=maximally impaired).
For the body swing test, the rat was held approximately one inch from the base of its tail. It was then elevated to an inch above a surface of a table. The rat was held in the vertical axis, defined as no more than […] to either the left or the right side. A swing was recorded whenever the rat moved its head out of the vertical axis to either side. The rat must return to the vertical position for the next swing to be counted. Thirty (30) total swings were counted. A normal rat typically has an equal number of swings to either side. Following focal ischemia, the rat tends to swing to the contralateral (left) side.
The behavior was evaluated by giving the score ranging in the parentheses after each test: • Forelimb placing test (0-12), consisting of whisker tactile placing (0-2); visual placing (forward, sideways) (0-4); tactile placing (dorsal, lateral) (0-4); and proprioceptive placing (0-2); • Hindlimb placing test (0-6), consisting of tactile placing (dorsal, lateral) (0-4); and proprioceptive placing (0-2). […]

[3] = treatment from 1 h after occlusion, up to 28 days

## [O-][n+]1cccc(/C(Cl)=N/OC[C@H](O)CN2CCCCC2)c1 [arimoclomol, N-[2-hydroxy-3-(1-piperidinyl)propoxy]-pyridine-1-oxide-3-carboximidoyl chloride]
[1]
  cytoprotection against OGD as measured by LDH release: cytoprotective
[2]; day 28 after permanent MCAO, percentage of intact contralateral hemispheric volume, mean ± S.E.M.
  Infarct Volume (%): 21.6 ± 3.6%
[2]; [3]
  Body Swing Test, recovery compared to vehicle group: superior to the vehicle group; also recorded: non-significant trend of enhanced recovery
  Forelimb Placing Test, recovery compared to vehicle group: superior to the vehicle group
  Hindlimb Placing Test, recovery compared to vehicle group: superior to the vehicle group
